# Results: patent US20250230155A1 (Vanderbilt University, priority 2021, published 2025)
# Target: T1, human mAChR M4 (Homo sapiens, UniProt P08173)
# T1 construct: expressed in transfected cells
# T1 sequence (P08173 1-479): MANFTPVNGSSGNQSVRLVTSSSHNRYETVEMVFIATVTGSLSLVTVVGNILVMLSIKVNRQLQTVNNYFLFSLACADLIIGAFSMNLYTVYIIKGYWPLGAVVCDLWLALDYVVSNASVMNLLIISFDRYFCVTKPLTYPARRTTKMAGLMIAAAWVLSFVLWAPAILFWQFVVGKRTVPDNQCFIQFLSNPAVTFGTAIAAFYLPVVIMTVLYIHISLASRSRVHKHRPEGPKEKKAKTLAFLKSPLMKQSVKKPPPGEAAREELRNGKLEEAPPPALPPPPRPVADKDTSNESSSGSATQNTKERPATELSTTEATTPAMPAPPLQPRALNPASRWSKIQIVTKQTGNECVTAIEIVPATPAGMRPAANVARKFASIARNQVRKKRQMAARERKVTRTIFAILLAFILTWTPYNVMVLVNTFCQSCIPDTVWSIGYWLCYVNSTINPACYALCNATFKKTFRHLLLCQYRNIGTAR
# Assay: mAChR M4 cell-based functional assay (calcium mobilization, CHO-K1 hM4-Gqi5 cells)
# Conditions: for Emax at 30 µM: CHO-K1, % ACh maximum at 30 μM, human M4; for EC50: positive allosteric modulator activity, increase in the EC20 acetylcholine response, CHO-K1 hM4-Gqi5 cells, read-out: Human M4 EC50
# Outline: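 CHO-K1 cells stably expressing human M4 with chimeric Gqi5, loaded with Fluo-4 AM; compounds given as 11-point 1:3 curves and calcium flux read on FDSS at 1 Hz. Acetylcholine EC20 added at 144 s, EC80 at 230 s; agonist, PAM (EC20 potentiation) and antagonist (EC80 inhibition) EC50/Emax from four-parameter fits.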
Emax at 30 µM,EC50,SMILES
69%,3130 nM,"Cc1cc(C(=O)NCc2cccc(F)c2)cnc1N1CCc2ncccc2C1 [compound 159, 6-(7,8-dihydro-5H-1,6-naphthyridin-6-yl)-N-[(3-fluorophenyl)methyl]-5-methyl-pyridine-3-carboxamide]"
101%,422 nM,"Cc1c(C(=O)NCc2csc3ccccc23)nnc(N2CCc3ncc(C(F)(F)F)cc3C2)c1C [Example 463, N-(benzo[b]thiophen-3-ylmethyl)-4,5-dimethyl-6-(3-(trifluoromethyl)-7,8-dihydro-1,6-naphthyridin-6(5H)-yl)pyridazine-3-carboxamide]"
99%,216 nM,"Cc1cc(C#N)cnc1N1CCc2ncc(-c3cnn(C)c3)cc2C1 [compound 104, 5-methyl-6-[3-(1-methylpyrazol-4-yl)-7,8-dihydro-5H-1,6-naphthyridin-6-yl]pyridine-3-carbonitrile]"
105%,45 nM,"Cc1cc(C(=O)N2CC(F)(F)C2)nnc1N1CCc2ncc(N3CCCn4nccc43)cc2C1 [Example 544, (3,3-difluoroazetidin-1-yl)(6-(3-(6,7-dihydropyrazolo[1,5-a]pyrimidin-4(5H)-yl)-7,8-dihydro-1,6-naphthyridin-6(5/)-yl)-5-methylpyridazin-3-yl)methanone]"
88%,380 nM,"Cc1cc(C#N)cnc1N1CCc2ncc(-n3cccn3)cc2C1 [Example 344, 6-(3-(1H-pyrazol-1-yl)-7,8-dihydro-1,6-naphthyridin-6(5H)-yl)-5-methylnicotinonitrile]"
68%,1910 nM,"Cc1c(C#N)nnc(N2CCc3ncc(-c4cnn(CC(C)(C)O)c4)cc3C2)c1C [Example 327, 6-(3-(1-(2-hydroxy-2-methylpropyl)-1H-pyrazol-4-yl)-7,8-dihydro-1,6-naphthyridin-6(5H)-yl)-4,5-dimethylpyridazine-3-carbonitrile]"
96%,128 nM,"Cc1nc(Cl)c(C)c(N2CCc3ncc(C(F)(F)F)cc3C2)n1 [compound 200, 6-(6-chloro-2,5-dimethyl-pyrimidin-4-yl)-3-(trifluoromethyl)-7,8-dihydro-5H-1,6-naphthyridine]"
79%,407 nM,"Cc1cc(C#N)cnc1N1CCc2ncc(-c3cnn(C4CCCC4)c3)cc2C1 [compound 98, 6-[3-(1-cyclopentylpyrazol-4-yl)-7,8-dihydro-5H-1,6-naphthyridin-6-yl]-5-methyl-pyridine-3-carbonitrile]"
71%,41 nM,"[2H]C([2H])([2H])c1cnc2c(c1)CN(c1nnc(C(=O)N3CC(F)(F)C3)cc1C)CC2 [Example 576, (3,3-difluoroazetidin-1-yl)(5-methyl-6-(3-(methyl-d3)-7,8-dihydro-1,6-naphthyridin-6(5H)-yl)pyridazin-3-yl)methanone]"
98%,25 nM,"Cc1cc(C#N)nnc1N1CCc2ncc(Nc3ccncc3F)cc2C1 [Example 598, 6-(3-((3-fluoropyridin-4-yl)amino)-7,8-dihydro-1,6-naphthyridin-6(5H)-yl)-5-methylpyridazine-3-carbonitrile]"
105%,136 nM,"Cc1c(C(=O)NCc2ccncc2)nnc(N2CCc3ncc(Nc4ccccc4F)cc3C2)c1C [compound 190, 6-[3-(2-fluoroanilino)-7,8-dihydro-5H-1,6-naphthyridin-6-yl]-4,5-dimethyl-N-(4-pyridylmethyl)pyridazine-3-carboxamide]"
100%,268 nM,"Cc1cc(C(=O)N2CC(C)(O)C2)nnc1N1CCc2ncc(N3CCO[C@H](C)C3)cc2C1 [Example 540, (R)-(3-hydroxy-3-methylazetidin-1-yl)(5-methyl-6-(3-(2-methylmorpholino)-7,8-dihydro-1,6-naphthyridin-6(5H)-yl)pyridazin-3-yl)methanone]"
91%,164 nM,"Cc1cc(C#N)cnc1N1CCc2ncc(Oc3ccc4c(cnn4C)c3)cc2C1 [compound 183, 5-methyl-6-[3-(1-methylindazol-5-yl)oxy-7,8-dihydro-5H-1,6-naphthyridin-6-yl]pyridine-3-carbonitrile]"
100%,969 nM,"Cc1cc(C#N)cnc1N1CCc2ncc(Nc3cccc(Cl)c3F)cc2C1 [compound 114, 6-[3-(3-chloro-2-fluoro-anilino)-7,8-dihydro-5H-1,6-naphthyridin-6-yl]-5-methyl-pyridine-3-carbonitrile]"
91%,339 nM,"Cc1cc(C#N)cnc1N1CCc2ncc(-c3cnn(C4CCC4)c3)cc2C1 [compound 101, 6-[3-(1-cyclobutylpyrazol-4-yl)-7,8-dihydro-5H-1,6-naphthyridin-6-yl]-5-methyl-pyridine-3-carbonitrile]"
96%,76 nM,"Cc1cc(C#N)cnc1N1CCc2ncc(N3CCCc4ncccc43)cc2C1 [Example 362, 6-(3-(3,4-dihydro-1,5-naphthyridin-1(2H)-yl)-7,8-dihydro-1,6-naphthyridin-6(5H)-yl)-5-methylnicotinonitrile]"
42%,6530 nM,"Cc1ccccc1OCCOc1cnc2c(c1)CN(c1ncc(C#N)cc1C)CC2 [Example 430, 5-methyl-6-(3-(2-(o-tolyloxy)ethoxy)-7,8-dihydro-1,6-naphthyridin-6(5H)-yl)nicotinonitrile]"
77%,176 nM,"Cc1nc(C)c(C)c(N2CCc3ncc(-c4cn(C)nc4C)cc3C2)n1 [compound 201, 3-(1,3-dimethylpyrazol-4-yl)-6-(2,5,6-trimethylpyrimidin-4-yl)-7,8-dihydro-5H-1,6-naphthyridine]"
59%,2350 nM,"Cc1cc(C#N)cnc1N1CCc2ncc(OCCOc3ccc(F)cc3)cc2C1 [Example 428, 6-(3-(2-(4-fluorophenoxy)ethoxy)-7,8-dihydro-1,6-naphthyridin-6(5H)-yl)-5-methylnicotinonitrile]"
92%,150 nM,"Cc1cnccc1CNC(=O)c1cnc(N2CCc3ncc(-c4cn(C)nc4C)cc3C2)c(C)c1 [Example 451, 6-(3-(1,3-dimethyl-1/-pyrazol-4-yl)-7,8-dihydro-1,6-naphthyridin-6(5H)-yl)-5-methyl-N-((3-methylpyridin-4-yl)methyl)nicotinamide]"
74%,470 nM,"Cc1cc(C#N)cnc1N1CCc2ncc(-c3ccc(N(C)C)nc3)cc2C1 [Example 318, 6-(3-(6-(dimethylamino)pyridin-3-yl)-7,8-dihydro-1,6-naphthyridin-6(5H)-yl)-5-methylnicotinonitrile]"
82%,605 nM,"Cc1nc(Cl)c(C)c(N2CCc3ncc(-c4c(C)nn(C)c4C)cc3C2)n1 [compound 193, 6-(6-chloro-2,5-dimethyl-pyrimidin-4-yl)-3-(1,3,5-trimethylpyrazol-4-yl)-7,8-dihydro-5H-1,6-naphthyridine]"
89%,358 nM,"Cc1cc(C#N)cnc1N1CCc2ncc(Cc3ccccc3F)cc2C1 [Example 365, 6-(3-(2-fluorobenzyl)-7,8-dihydro-1,6-naphthyridin-6(5H)-yl)-5-methylnicotinonitrile]"
–,584 nM,"Clc1nc2c(c(N3CCc4ncc(C5CC5)cc4C3)n1)COC2 [compound 287, 2-chloro-4-(3-cyclopropyl-7,8-dihydro-1,6-naphthyridin-6(5H)-yl)-5,7-dihydrofuro[3,4-d]pyrimidine]"
82%,232 nM,"Cc1ccc(Nc2cnc3c(c2)CN(c2nnc(C#N)c(C)c2C)CC3)c(F)n1 [compound 79, 6-[3-[(2-fluoro-6-methyl-3-pyridyl)amino]-7,8-dihydro-5H-1,6-naphthyridin-6-yl]-4,5-dimethyl-pyridazine-3-carbonitrile]"
95%,5 nM,"Cc1cc(C(=O)NCc2cncs2)nnc1N1CCc2ncc(N3CCCn4nccc43)cc2C1 [Example 489, 6-(3-(6,7-dihydropyrazolo[1,5-a]pyrimidin-4(5H)-yl)-7,8-dihydro-1,6-naphthyridin-6(5H)-yl)-5-methyl-N-(thiazol-5-ylmethyl)pyridazine-3-carboxamide]"
61%,914 nM,"Cc1cncc(-c2cnc3c(c2)CN(c2nnc(C#N)c(C)c2C)CC3)c1 [Example 435, 4,5-dimethyl-6-(3-(5-methylpyridin-3-yl)-7,8-dihydro-1,6-naphthyridin-6(5H)-yl)pyridazine-3-carbonitrile]"
99%,25 nM,"Cc1nc(C)c(C)c(N2CCc3ncc(N4CCCn5nccc54)cc3C2)n1 [compound 244, 3-(6,7-dihydropyrazolo[1,5-a]pyrimidin-4(5H)-yl)-6-(2,5,6-trimethylpyrimidin-4-yl)-5,6,7,8-tetrahydro-1,6-naphthyridine]"
73%,356 nM,"Cc1cc(C#N)nnc1N1CCc2ncc(-c3ccc(C4CC4)nc3)cc2C1 [Example 321, 6-(3-(6-cyclopropylpyridin-3-yl)-7,8-dihydro-1,6-naphthyridin-6(5H)-yl)-5-methylpyridazine-3-carbonitrile]"
